Results taken from patent US8536166B2, “Inhibitors of Burton's tyrosine kinase” (Roche Palo Alto LLC, priority 2008, dated 2013).
pIC50: −log10 of the molar value.

Legend:
[1] = target: Btk enzyme (His-tagged, full-length) (Homo sapiens (Human), UniProt Q06187); assay: Bruton's Tyrosine Kinase (Btk) Inhibition Assay; type: biochemical; settings: 33P filtration capture assay, 100 μM ATP, 30 μM biotinylated peptide substrate
Excerpt: The assay is a capture of radioactive ^33P phosphorylated product through filtration. The interactions of Btk, biotinylated SH2 peptide substrate (Src homology), and ATP lead to phosphorylation of the peptide substrate. Biotinylated product is bound streptavidin sepharose beads. All bound, radiolabeled products are detected by scintillation counter.
Plates assayed are 96-well polypropylene (Greiner) and 96-well 1.2 μm hydrophilic PVDF filter plates (Millipore). Concentrations reported here are final assay concentrations: 10-100 μM compounds in DMSO (Burdick and Jackson), 5-10 nM Btk enzyme (His-tagged, full-length), 30 μM peptide substrate (Biotin-Aca-AAAEEIYGEI-NH2), 100 μM ATP (Sigma), 8 mM imidazole (Sigma, pH 7.2), 8 mM glycerol-2-phosphate (Sigma), 200 μM EGTA (Roche Diagnostics), 1 mM MnCl2 (Sigma), 20 mM MgCl2 (Sigma), 0.1 mg/ml BSA (Sigma), 2 mM DTT (Sigma), 1 μCi ^33P ATP (Amersham), 20% streptavidin sepharose beads (Amersham), 50 mM EDTA (Gibco), 2 M NaCl (Gibco), 2 M NaCl w/1% phosphoric acid (Gibco), microscint-20 (Perkin Elmer).
IC50 determinations are calculated from 10 data points per compound utilizing data produced from a standard 96-well plate assay template. One control compound and seven unknown inhibitors were tested on each plate and each plate was run twice. Typically, compounds were diluted in half-log starting at 100 μM and ending at 3 nM. The control compound was staurosporine. Background was counted in the absence of peptide substrate. Total activity was determined in the presence of peptide substrate. The following protocol was used to determine Btk inhibition. • 1) Sample preparation: The test compounds were diluted at half-log increments in assay buffer (imidazole, glycerol-2-phosphate, EGTA, MnCl2, MgCl2, BSA). • 2) Bead preparation • a.) rinse beads by centrifuging at 500 g • b.) reconstitute the beads with PBS and EDTA to produce a 20% bead slurry • 3) Pre-incubate reaction mix without substrate (assay buffer, DTT, ATP, ^33P ATP) and mix with substrate (assay buffer, DTT, ATP, ^33P ATP, peptide substrate) 30° C. for 15 mm. • 4) To start assay, pre-incubate 10 μL Btk in enzyme buffer (imidazole, glycerol-2-phosphate, BSA) and 10 μL of test compounds for 10 min at RT. • 5) Add 30 μL reaction mixture without or with substrate to Btk and compounds. • 6) Incubate 50 μL total assay mix for 30 min at 30° C. • 7) Transfer 40 μL of assay to 150 μL bead slurry in filter plate to stop reaction. • 8) Wash filter plate after 30 min, with following steps • a. 3×250 μL NaCl • b. 3×250 μL NaCl containing 1% phosphoric acid • c. […]

Btk enzyme (His-tagged, full-length), sequence (Q06187 whole entry): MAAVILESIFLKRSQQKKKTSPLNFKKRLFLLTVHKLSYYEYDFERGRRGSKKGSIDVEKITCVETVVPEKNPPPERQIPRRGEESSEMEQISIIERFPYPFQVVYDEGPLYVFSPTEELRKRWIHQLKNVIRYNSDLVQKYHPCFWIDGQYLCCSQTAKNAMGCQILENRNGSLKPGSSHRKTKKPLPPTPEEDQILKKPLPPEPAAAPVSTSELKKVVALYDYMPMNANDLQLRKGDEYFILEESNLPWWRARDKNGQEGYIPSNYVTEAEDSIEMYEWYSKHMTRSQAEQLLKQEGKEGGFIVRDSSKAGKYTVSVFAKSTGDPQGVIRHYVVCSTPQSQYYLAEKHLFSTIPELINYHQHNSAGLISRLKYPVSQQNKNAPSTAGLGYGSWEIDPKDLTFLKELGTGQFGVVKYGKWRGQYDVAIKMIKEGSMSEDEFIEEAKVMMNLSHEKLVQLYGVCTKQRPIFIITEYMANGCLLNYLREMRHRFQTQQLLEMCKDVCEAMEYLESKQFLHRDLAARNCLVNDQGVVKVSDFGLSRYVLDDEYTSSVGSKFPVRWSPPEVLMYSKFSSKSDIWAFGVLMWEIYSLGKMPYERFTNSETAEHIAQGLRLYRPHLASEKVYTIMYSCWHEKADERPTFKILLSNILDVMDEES

Row | melting point [°C] | pIC50 [1] | Structure (SMILES)
1 | 145 to 150 | – | CN(C)c1ccc2c(c1)CCN(c1cccc(-c3cn(C)c(=O)c(Nc4ccc5c(c4)OC(F)(F)O5)n3)c1CO)C2=O [II-1, 2-{3-[6-(2,2-Difluoro-benzo[1,3]dioxol-5-ylamino)-4-methyl-5-oxo-4,5-dihydro-pyrazin-2-yl]-2-hydroxymethyl-phenyl}-6-dimethylamino-3,4-dihydro-2H-isoquinolin-1-one]
2 | – | 7.80 | Cn1cc(Nc2nc(-c3cccc(N4CCc5cc(C6CC6)ccc5C4=O)c3CO)cn(C)c2=O)cn1 [II-5, 6-Cyclopropyl-2-{2-hydroxymethyl-3-[4-methyl-6-(1-methyl-1H-pyrazol-4-ylamino)-5-oxo-4,5-dihydro-pyrazin-2-yl]-phenyl}-3,4-dihydro-2H-isoquinolin-1-one]
3 | – | 7.82 | CN(C)C(=O)c1ccc(Nc2nc(-c3cccc(N4CCc5cc(C6CC6)ccc5C4=O)c3CO)cn(C)c2=O)cc1 [II-6, 4-{6-[3-(6-Cyclopropyl-1-oxo-3,4-dihydro-1H-isoquinolin-2-yl)-2-hydroxymethyl-phenyl]-4-methyl-3-oxo-3,4-dihydro-pyrazin-2-ylamino}-N,N-dimethyl-benzamide]
4 | 178 to 180 | – | Cn1cc(-c2cccc(N3CCc4cc(C5CC5)ccc4C3=O)c2CO)nc(Nc2ccc(C(=O)N3CCCC3)cc2)c1=O [II-10, 6-Cyclopropyl-2-(2-hydroxymethyl-3-{4-methyl-5-oxo-6-[4-(pyrrolidine-1-carbonyl)-phenylamino]-4,5-dihydro-pyrazin-2-yl}-phenyl)-3,4-dihydro-2H-isoquinolin-1-one]
5 | 172 to 174 | 8.00 | Cn1cc(-c2cccc(N3CCc4cc(C5(F)CC5)ccc4C3=O)c2CO)nc(Nc2ccc(C(=O)N3CCOCC3)cc2)c1=O [II-11, 6-(1-Fluoro-cyclopropyl)-2-(2-hydroxymethyl-3-{4-methyl-6-[4-(morpholine-4-carbonyl)-phenylamino]-5-oxo-4,5-dihydro-pyrazin-2-yl}-phenyl)-3,4-dihydro-2H-isoquinolin-1-one]
6 | 171 to 173 | 8.00 | Cn1cc(-c2cccc(N3CCc4cc(C5CC5)ccc4C3=O)c2CO)nc(Nc2ccc(C(=O)N3CCC(O)CC3)cc2)c1=O [II-12, 6-Cyclopropyl-2-(2-hydroxymethyl-3-{6-[4-(4-hydroxy-piperidine-1-carbonyl)-phenylamino]-4-methyl-5-oxo-4,5-dihydro-pyrazin-2-yl}-phenyl)-3,4-dihydro-2H-isoquinolin-1-one]
7 | 146 to 148 | – | COC1CCN(C(=O)c2ccc(Nc3nc(-c4cccc(N5CCc6cc(C7CC7)ccc6C5=O)c4CO)cn(C)c3=O)cc2)CC1 [II-13, 6-Cyclopropyl-2-(2-hydroxymethyl-3-{6-[4-(4-methoxy-piperidine-1-carbonyl)-phenylamino]-4-methyl-5-oxo-4,5-dihydro-pyrazin-2-yl}-phenyl)-3,4-dihydro-2H-isoquinolin-1-one]
8 | 172 to 175 | – | CN1CCN(C(=O)c2ccc(Nc3nc(-c4cccc(N5CCc6cc(C7CC7)ccc6C5=O)c4CO)cn(C)c3=O)cc2)CC1 [II-14, 6-Cyclopropyl-2-(2-hydroxymethyl-3-{4-methyl-6-[4-(4-methyl-piperazine-1-carbonyl)-phenylamino]-5-oxo-4,5-dihydro-pyrazin-2-yl}-phenyl)-3,4-dihydro-2H-isoquinolin-1-one]
9 | 115 to 117 | – | CN(CCO)C(=O)c1ccc(Nc2nc(-c3cccc(N4CCc5cc(C6CC6)ccc5C4=O)c3CO)cn(C)c2=O)cc1 [II-15, 4-{6-[3-(6-Cyclopropyl-1-oxo-3,4-dihydro-1H-isoquinolin-2-yl)-2-hydroxymethyl-phenyl]-4-methyl-3-oxo-3,4-dihydro-pyrazin-2-ylamino}-N-(2-hydroxy-ethyl)-N-methyl-benzamide]
10 | 175 to 180.1 | – | Cn1cc(-c2cccc(N3CCc4cc(C5CC5)ccc4C3=O)c2CO)nc(Nc2ccc(C(=O)N3CCN(CCO)CC3)cc2)c1=O [II-16, 6-Cyclopropyl-2-[3-(6-{4-[4-(2-hydroxy-ethyl)-piperazine-1-carbonyl]-phenylamino}-4-methyl-5-oxo-4,5-dihydro-pyrazin-2-yl)-2-hydroxymethyl-phenyl]-3,4-dihydro-2H-isoquinolin-1-one]
11 | 173 to 175 | – | CC1CN(C(=O)c2ccc(Nc3nc(-c4cccc(N5CCc6cc(C7CC7)ccc6C5=O)c4CO)cn(C)c3=O)cc2)CC(C)O1 (centres unmarked) [II-17, 6-Cyclopropyl-2-(3-{6-[4-(2,6-dimethyl-morpholine-4-carbonyl)-phenylamino]-4-methyl-5-oxo-4,5-dihydro-pyrazin-2-yl}-2-hydroxymethyl-phenyl)-3,4-dihydro-2H-isoquinolin-1-one]
12 | 153 to 155 | – | CCN1CCN(C(=O)c2ccc(Nc3nc(-c4cccc(N5CCc6cc(C7CC7)ccc6C5=O)c4CO)cn(C)c3=O)cc2)CC1 [II-20, 6-Cyclopropyl-2-(3-{6-[4-(4-ethyl-piperazine-1-carbonyl)-phenylamino]-4-methyl-5-oxo-4,5-dihydro-pyrazin-2-yl}-2-hydroxymethyl-phenyl)-3,4-dihydro-2H-isoquinolin-1-one]
